US4762840A, “Pyrimido[2,1-b]benzothiazoles having antiallergic activity” (Roussel Uclaf, priority 1984, dated 1988)

system: lungs; assay: Antigen-induced elevation of lung perfusion pressure (isolated perfused sensitized lung, ovalbumen); set-up: species or system guinea pig (Dunkin Hartley); settings: Cavia porcellus; perfused lungs of ovalbumen-sensitized guinea pigs; compound in krebs fluid 30 minutes prior to second antigen dose (15 μg ovalbumen); at least four lungs per concentration; read-out: IC50 (inhibition of antigen induced broncho-constriction)
Protocol: Antigen-induced elevation of lung perfusion pressure
Male Dunkin Hartley guinea pigs (Porcellus) weighing between 450-700 g were used (four per test concentration) and were housed in cages. The animals were sensitized by two weekly exposures to 1% W/V aerosol ovalbumen. The animals were anaesthetized with 2.5 mg/kg diazepam i.p. and 1 ml/kg Hyponorm i.m. Following anaethesia, the animals were exsanguinated by severing both carotid arteries and the chest was opened and the lungs removed, split into two at the carina and both cannulated via the main lobar bronchus and connected to a perfusion system. The lungs were perfused with aerated krebs fluid (95% O2 :5% CO2) at 37° C. and 5 μg in 0.1 ml Ovalbumen was injected through an injection port proximal to each lung. Elevation of perfusion pressure by the antigen was recorded and sixty minutes later, 15 μg of ovalbumen were administered. The test compounds were added to the krebs fluid reservoir thirty minutes prior to the second antigen dose. For each weekly batch of animals used, control measurements were made without treatment (n=10 ). The second antigen response was expressed as a percentage of the first. For each test, at least four lungs from four different animals were used per concentration. The percentage inhibition of antigen induced broncho-constriction was calculated.

Q: `O=C(Cc1ccc2c(c1)sc1nc(=O)cc(-c3ccccc3)n12)N1CCCCC1` [Example 48, 1-(N-piperidino)-2-(2-oxo-4-phenyl-2H-pyrimido[2,1-b]benzothiazole-8-yl)-ethanone] was tested. Which IC50 did it give?
A: 10 to 100 µM

Q: With `CCOC(=O)C(CC)c1ccc2c(c1)sc1nc(=O)cc(-c3ccccc3)n12` (stereo not drawn) [Example 29, Ethyl α-ethyl-4-phenyl-2-oxo-2H-pyrimido[2,1-b]benzothiazole-8-acetate] as the compound, how does the IC50 read?
A: 0.1 µM

Q: How did the IC50 turn out when `CCOC(=O)Cc1ccc2c(c1)sc1nc(=O)cc(-c3ccc([N+](=O)[O-])cc3)n12` [Example 10, Ethyl 4-(4-nitrophenyl)-2-oxo-2H-pyrimido[2,1-b]benzothiazole-8-acetate] was run?
A: 10 to 100 µM

Q: With `CCOC(=O)Cc1ccc2c(c1)sc1nc(=O)cc(-c3cccc(Cl)c3)n12` [Example 14, Ethyl 4-(3-chlorophenyl)-2-oxo-2H-pyrimido[2,1-b]benzothiazole-8-acetate] as the compound, how does the IC50 read?
A: ≤ 1 µM

Q: With `CCOC(=O)Cc1ccc2c(c1)sc1nc(=O)cc(C)n12` [Example 15, Ethyl 4-methyl-2-oxo-2H-pyrimido[2,1-b]benzothiazole-8-acetate] as the compound, how does the IC50 read?
A: 10 to 100 µM

Q: For `CCOC(=O)C(CC)(CC)c1ccc2c(c1)sc1nc(=O)cc(-c3ccccc3)n12` [Example 40, Ethyl α,α-diethyl-4-phenyl-2-oxo-2H-pyrimido[2,1-b]benzothiazole-8-acetate], which IC50 is on record?
A: 10 to 100 µM

Q: How did the IC50 turn out when `CCCCC(C(=O)OCC)c1ccc2c(c1)sc1nc(=O)cc(-c3ccccc3)n12` (stereo not drawn) [Example 34, Ethyl α-butyl-4-phenyl-2-oxo-2H-pyrimido[2,1-b]benzothiazole-8-acetate] was run?
A: 1 to 10 µM

Q: How did the IC50 turn out when `CCCC(C)(C(=O)OCC)c1ccc2c(c1)sc1nc(=O)cc(-c3ccccc3)n12` (stereo not drawn) [Example 38, Ethyl α-methyl-α-propyl-4-phenyl-2-oxo-2H-pyrimido[2,1-b]benzothiazole-8-acetate] was run?
A: 1 µM

Q: Which IC50 does the source give for `CCOC(=O)Cc1ccc2c(c1)sc1nc(=O)cc(-c3ccc(OC)cc3)n12` [Example 9, Ethyl 4-(4-methoxyphenyl)-2-oxo-2H-pyrimido[2,1-b]benzothiazole-8-acetate] here?
A: 1 µM

Q: `CCOC(=O)Cc1ccc2c(c1)sc1nc(=O)cc(C3CCCCC3)n12` [Example 30, Ethyl 4-cyclohexyl-2-oxo-2H-pyrimido[2,1-b]benzothiazole-8-acetate] was tested. Which IC50 did it give?
A: 1 to 10 µM

Q: `CCCCC(C)(C(=O)OCC)c1ccc2c(c1)sc1nc(=O)cc(-c3ccccc3)n12` (stereo not drawn) [Example 42, Ethyl α-butyl-α-methyl-4-phenyl-2-oxo-2H-pyrimido[2,1-b]benzothiazole-8-acetate] was tested. Which IC50 did it give?
A: 10 to 100 µM

Q: With `CCOC(=O)Cc1ccc2c(c1)sc1nc(=O)cc(CC)n12` [Example 16, Ethyl 4-ethyl-2-oxo-2H-pyrimido[2,1-b]benzothiazole-8-acetate] as the compound, how does the IC50 read?
A: 100 µM

Q: `CC(C(=O)OCC(C)(C)C)c1ccc2c(c1)sc1nc(=O)cc(-c3ccccc3)n12` (stereo not drawn) [Example 43, 2,2-Dimethylpropyl α-methyl-4-phenyl-2-oxo-2H-pyrimido[2,1-b]benzothiazole-8-acetate] was tested. Which IC50 did it give?
A: 0.1 µM

Q: With `CCOC(=O)C(C)c1ccc2c(c1)sc1nc(=O)cc(-c3ccccc3)n12` (stereo not drawn) [Example 20, Ethyl α-methyl-2-oxo-4-phenyl-2H-pyrimido[2,1-b]benzothiazole-8-acetate] as the compound, how does the IC50 read?
A: 0.1 µM

Q: For `CC(C)OC(=O)C(C)c1ccc2c(c1)sc1nc(=O)cc(-c3ccccc3)n12` (stereo not drawn) [Example 35, Isopropyl α-methyl-4-phenyl-2-oxo-2H-pyrimido[2,1-b]benzothiazole-8-acetate], which IC50 is on record?
A: 0.1 to 1 µM

Q: How did the IC50 turn out when `CCOC(=O)Cc1ccc2c(c1)sc1nc(=O)cc(C(C)C)n12` [Example 25, Ethyl 4-isopropyl-2-oxo-2H-pyrimido[2,1-b]benzothiazole-8-acetate] was run?
A: 10 to 100 µM

Q: For `CCCOC(=O)Cc1ccc2c(c1)sc1nc(=O)cc(-c3ccccc3)n12` [Example 5, n-Propyl 2-oxo-4-phenyl-2H-pyrimido[2,1-b]benzothiazole-8-acetate], which IC50 is on record?
A: < 10 µM

Q: Which IC50 does the source give for `CCOC(=O)C(C)(C)c1ccc2c(c1)sc1nc(=O)cc(-c3ccccc3)n12` [Example 36, Ethyl α,α-dimethyl-4-phenyl-2-oxo-2H-pyrimido[2,1-b]benzothiazole-8-acetate] here?
A: 1 to 10 µM

Q: With `CCCCc1cc(=O)nc2sc3cc(CC(=O)OCC)ccc3n12` [Example 18, Ethyl 4-n-butyl-2-oxo-2H-pyrimido[2,1-b]benzothiazole-8-acetate] as the compound, how does the IC50 read?
A: 10 µM

Q: How did the IC50 turn out when `CCCC(CC)(C(=O)OCC)c1ccc2c(c1)sc1nc(=O)cc(-c3ccccc3)n12` (stereo not drawn) [Example 41, Ethyl α-ethyl-α-propyl-4-phenyl-2-oxo-2H-pyrimido[2,1-b]benzothiazole-8-acetate] was run?
A: 10 to 100 µM

Q: With `CCN(CC)C(=O)Cc1ccc2c(c1)sc1nc(=O)cc(-c3ccccc3)n12` [Example 47, N,N-diethyl-2-oxo-4-phenyl-2H-pyrimido-[2,1-b]benzothiazole-8-acetamide] as the compound, how does the IC50 read?
A: 10 µM

Q: How did the IC50 turn out when `CCCc1cc(=O)nc2sc3cc(C(C)C(=O)OCC)ccc3n12` (stereo not drawn) [Example 24, Ethyl α-methyl-2-oxo-4-n-propyl-2H-pyrimido[2,1-b]benzothiazole-8-acetate] was run?
A: > 10 µM

Q: `COC(=O)Cc1ccc2c(c1)sc1nc(=O)cc(-c3ccccc3)n12` [Example 4, Methyl 2-oxo-4-phenyl-2H-pyrimido[2,1-b]benzothiazole-8-acetate] was tested. Which IC50 did it give?
A: 10 µM

Q: For `CCOC(=O)C(C)c1ccc2c(c1)sc1nc(=O)cc(C(C)C)n12` (stereo not drawn) [Example 28, Ethyl α-methyl-4-isopropyl-2-oxo-2H-pyrimido[2,1-b]benzothiazole-8-acetate], which IC50 is on record?
A: 10 to 100 µM

Q: `CCOC(=O)Cc1ccc2c(c1)sc1nc(=O)cc(-c3ccc(C)cc3)n12` [Example 13, Ethyl 4-(4-methylphenyl)-2-oxo-2H-pyrimido[2,1-b]benzothiazole-8-acetate] was tested. Which IC50 did it give?
A: < 1 µM

Q: `CC(C(=O)OC(C)(C)C)c1ccc2c(c1)sc1nc(=O)cc(-c3ccccc3)n12` (stereo not drawn) [Example 39, t-Butyl α-methyl-4-phenyl-2-oxo-2H-pyrimido[2,1-b]benzothiazole-8-acetate] was tested. Which IC50 did it give?
A: 0.1 µM

Q: `CCNC(=O)Cc1ccc2c(c1)sc1nc(=O)cc(-c3ccccc3)n12` [Example 45, N-ethyl-2-oxo-4-phenyl-2H-pyrimido[2,1-b]benzothiazole-8-acetamide] was tested. Which IC50 did it give?
A: 10 to 100 µM

Q: With `CCOC(=O)C(C)c1ccc2c(c1)sc1nc(=O)ccn12` (stereo not drawn) [Example 2, Ethyl 2-oxo-2H-pyrimido[2,1-b]benzothiazole-8-α-methylacetate] as the compound, how does the IC50 read?
A: > 100 µM

Q: Which IC50 does the source give for `CC(C(=O)OC1(C)CCCCC1)c1ccc2c(c1)sc1nc(=O)cc(-c3ccccc3)n12` (stereo not drawn) [Example 49, 1-Methylcyclohexyl α-methyl-2-oxo-4-phenyl-2H-pyrimido[2,1-b]benzothiazole-8-acetate] here?
A: 1 to 10 µM

Q: Which IC50 does the source give for `CCOC(=O)C(C)c1ccc2c(c1)sc1nc(=O)cc(C3CCCCC3)n12` (stereo not drawn) [Example 31, Ethyl α-methyl-4-cyclohexyl-2-oxo-2H-pyrimido[2,1-b]benzothiazole-8-acetate] here?
A: < 10 µM

Q: `CCOC(=O)Cc1ccc2c(c1)sc1nc(=O)cc(-c3ccccc3Cl)n12` [Example 12, Ethyl 4-(2-chlorophenyl)-2-oxo-2H-pyrimido[2,1-b]benzothiazole-8-acetate] was tested. Which IC50 did it give?
A: 0.1 to 1 µM

Q: How did the IC50 turn out when `CCCCOC(=O)Cc1ccc2c(c1)sc1nc(=O)cc(-c3ccccc3)n12` [Example 7, n-Butyl 2-oxo-4-phenyl-2H-pyrimido[2,1-b]benzothiazole-8-acetate] was run?
A: > 10 µM
